# Test results published in patent US10633407B2, “14-membered ketolides and methods of their preparation and use” (President and Fellows of Harvard College, priority 2014, dated 2020).
# What was measured:
# Experiment in all cases: CLSI broth dilution MIC determination
# Assay type in all cases: cell-based
# [1] = test system: E. faecalis ATCC 29212; details: E. faecalis ATCC 29212; Gram-positive
# [2] = test system: A. baumannii IMP-4; details: Gram-negative
# [3] = test system: A. baumannii ATCC 19606; details: A. baumannii ATCC 19606; Gram-negative
# [4] = test system: K. pneumoniae KPC-2; details: Gram-negative
# [5] = test system: P. aeruginosa HPA101-1477; details: Gram-negative
# [6] = test system: P. aeruginosa ATCC 27853; details: P. aeruginosa ATCC 27853; Gram-negative
# [7] = test system: A. baumannii imipenem-resistant; details: Gram-negative
# [8] = test system: K. pneumoniae SHV-12; details: Gram-negative
# [9] = test system: A. baumannii chromosomal class C; details: Gram-negative
# [10] = test system: H. influenzae Erythro >4, Azithro 1; details: H. influenzae Erythro >4, Azithro 1; Gram-negative
# From the text: MIC data was collected for the novel macrolides that this platform has produced against over 21 unique strains of B. subtilis, E. coli, S. aureus, S. pneumoniae, and H. influenzae, including several multidrug-resistant strains, with a special focus on macrolide resistant mechanisms (vide supra). […] CLSI standard procedures for broth dilution MIC determination were used. […] These genotypes can be constitutive or inducible.
# [11] = test system: K. pneumoniae ATCC 10031; details: K. pneumoniae ATCC 10031; Gram-negative
# [12] = test system: E. faecalis Vancomycin-resistant; details: E. faecalis Vancomycin-resistant; Gram-positive
# [13] = test system: E. coli CTX-M-14; details: Gram-negative
# Summary of the method: (§1)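 Minimum inhibitory concentrations come from CLSI-standard broth dilution. The panel emphasises macrolide-resistance mechanisms, whose genotypes can be constitutive or inducible.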
# [14] = test system: E. coli TEM-1; details: E. coli TEM-1; Gram-negative
# Summary of the method: as §1
# [15] = test system: S. aureus erm A genotype; details: S. aureus erm A genotype; Gram-positive
# Summary of the method: as §1
# [16] = test system: S. aureus ATCC 29213; details: S. aureus ATCC 29213; Gram-positive
# Summary of the method: as §1
# [17] = test system: E. coli NDM-1; details: Gram-negative
# Summary of the method: as §1
# [18] = test system: H. influenzae ATCC49247; details: Gram-negative
# Summary of the method: as §1
# [19] = test system: E. coli ATCC 25922; details: E. coli ATCC 25922; Gram-negative
# Summary of the method: as §1
# [20] = test system: S. aureus MRSA: USA300; details: S. aureus MRSA: USA300; Gram-positive
# Summary of the method: as §1
# [21] = test system: S. aureus MRSA: USA100; details: S. aureus MRSA: USA100; Gram-positive
# Summary of the method: as §1
# [22] = test system: K. pneumoniae TEM-10; details: Gram-negative
# [23] = test system: S. aureus USA600, GISA; details: S. aureus USA600, GISA; Gram-positive
# Summary of the method: as §1
# [24] = test system: S. pneumoniae erm B + mef A genotype; details: S. pneumoniae erm B + mef A genotype; Gram-positive
# Summary of the method: as §1
# [25] = test system: S. pneumoniae ATCC 49619; details: S. pneumoniae ATCC 49619; Gram-positive
# Summary of the method: as §1
# [26] = test system: S. pneumoniae mef A genotype (second strain so labelled); details: Gram-positive
# Summary of the method: as §1
# [27] = test system: S. pyogenes ATCC 19615; details: S. pyogenes ATCC 19615; Gram-positive
# [28] = test system: S. pyogenes Macrolide-resistant; details: S. pyogenes Macrolide-resistant; Gram-positive
SMILES,MIC [1] [µg/mL],MIC [2] [µg/mL],MIC [3] [µg/mL],MIC [4] [µg/mL],MIC [5] [µg/mL],MIC [6] [µg/mL],MIC [7] [µg/mL],MIC [8] [µg/mL],MIC [9] [µg/mL],MIC [10] [µg/mL],MIC [11] [µg/mL],MIC [12] [µg/mL],MIC [13] [µg/mL],MIC [14] [µg/mL],MIC [15] [µg/mL],MIC [16] [µg/mL],MIC [17] [µg/mL],MIC [18] [µg/mL],MIC [19] [µg/mL],MIC [20] [µg/mL],further results
"CC[C@H]1OC(=O)[C@H](C)C(=O)[C@H](C)[C@@H](O[C@@H]2OC(C)CC(N(C)C)C2O)[C@](C)(OC)C[C@@H](C)C(=O)[C@H](C)[C@H]2N(CC3CC3Cn3cc(-c4cccc(N)c4)nn3)C(=O)O[C@]12C (single isomer, unassigned) [FSM-100428]",< 0.0312,> 32,16,> 32,> 32,> 32,16,> 32,16,2,16,> 32,> 32,32,> 32,< 0.0312,> 32,4,32,4,MIC [21]: > 32 µg/mL; MIC [22]: 32 µg/mL; MIC [23]: > 32 µg/mL; MIC [24]: 0.0625 µg/mL; MIC [25]: < 0.0312 µg/mL; MIC [26]: < 0.0312 µg/mL; MIC [27]: < 0.0312 µg/mL; MIC [28]: < 0.0312 µg/mL
"CC[C@H]1OC(=O)[C@H](C)C(=O)[C@H](C)[C@@H](O[C@@H]2OC(C)CC(N(C)C)C2O)[C@](C)(OC)C[C@@H](C)C(=O)[C@H](C)[C@H]2N(CC3CC3Cn3cc(-c4cccc(N)c4)nn3)C(=O)O[C@]12C (single isomer, unassigned) [FSM-100434]",< 0.0312,> 32,16,> 32,> 32,> 32,16,> 32,16,> 32,32,> 32,> 32,> 32,> 32,0.25,> 32,> 32,> 32,> 32,MIC [21]: > 32 µg/mL; MIC [22]: > 32 µg/mL; MIC [23]: > 32 µg/mL; MIC [24]: 1 µg/mL; MIC [25]: < 0.0312 µg/mL; MIC [26]: 0.125 µg/mL; MIC [27]: < 0.0312 µg/mL; MIC [28]: < 0.0312 µg/mL
CC[C@H]1OC(=O)[C@H](C)C(=O)[C@H](C)[C@@H](O[C@@H]2OC(C)CC(N(C)C)C2O)[C@](C)(OC)C[C@@H](C)C(=O)[C@H](C)[C@H]2N(C/C=C/Cn3cc(-c4nccs4)nn3)C(=O)O[C@]12C (stereo partly shown) [FSM-11559],≤ 0.0312,> 32,16,> 32,> 32,> 32,32,> 32,16,4,4,> 32,> 32,32,> 32,0.125,> 32,4,> 32,4,MIC [21]: > 32 µg/mL; MIC [22]: > 32 µg/mL; MIC [23]: > 32 µg/mL; MIC [24]: 1 µg/mL; MIC [25]: ≤ 0.0312 µg/mL; MIC [26]: 0.125 µg/mL; MIC [27]: ≤ 0.0312 µg/mL; MIC [28]: 0.125 µg/mL
CC[C@H]1OC(=O)[C@@](C)(F)C(=O)[C@H](C)[C@@H](O[C@@H]2OC(C)CC(N(C)C)C2O)[C@](C)(OC)C[C@@H](C)C(=O)[C@H](C)[C@H]2N(C/C=C/Cn3cc(-c4nccs4)nn3)C(=O)O[C@]12C (stereo partly shown) [FSM-11562],≤ 0.0312,> 32,8,> 32,> 32,> 32,8,> 32,8,2,4,> 32,> 32,16,> 32,0.0625,> 32,4,16,1,MIC [21]: > 32 µg/mL; MIC [22]: 32 µg/mL; MIC [23]: > 32 µg/mL; MIC [24]: 0.25 µg/mL; MIC [25]: ≤ 0.0312 µg/mL; MIC [26]: 0.0625 µg/mL; MIC [27]: ≤ 0.0312 µg/mL; MIC [28]: 0.125 µg/mL
CC[C@H]1OC(=O)[C@H](C)C(=O)[C@H](C)[C@@H](O[C@@H]2OC(C)CC(N(C)C)C2O)[C@](C)(OC)C[C@@H](C)C(=O)[C@H](C)[C@H]2N(CC#CCn3cc(-c4cccc(N)c4)nn3)C(=O)O[C@]12C (stereo partly shown) [FSM-100239],≤ 0.0312,> 32,8,> 32,> 32,> 32,4,> 32,2,1,4,16,> 32,16,> 32,≤ 0.0312,> 32,1,16,0.25,MIC [21]: > 32 µg/mL; MIC [22]: 32 µg/mL; MIC [23]: > 32 µg/mL; MIC [24]: 0.0625 µg/mL; MIC [25]: ≤ 0.0312 µg/mL; MIC [26]: ≤ 0.0312 µg/mL; MIC [27]: ≤ 0.0312 µg/mL; MIC [28]: ≤ 0.0312 µg/mL
CC[C@H]1OC(=O)[C@@](C)(F)C(=O)[C@H](C)[C@@H](O[C@@H]2OC(C)CC(N(C)C)C2O)[C@](C)(OC)C[C@@H](C)C(=O)[C@H](C)[C@H]2N(C/C=C/Cn3cc(-c4cnc(N)s4)nn3)C(=O)O[C@]12C (stereo partly shown) [FSM-100240],≤ 0.0312,> 32,32,> 32,> 32,> 32,32,> 32,16,1,4,8,> 32,32,> 32,≤ 0.0312,> 32,1,> 32,1,MIC [21]: > 32 µg/mL; MIC [22]: 32 µg/mL; MIC [23]: > 32 µg/mL; MIC [24]: 0.125 µg/mL; MIC [25]: ≤ 0.0312 µg/mL; MIC [26]: 0.25 µg/mL; MIC [27]: ≤ 0.0312 µg/mL; MIC [28]: 0.25 µg/mL
CC[C@H]1OC(=O)[C@H](C)C(=O)[C@H](C)[C@@H](O[C@@H]2OC(C)CC(N(C)C)C2O)[C@](C)(OC)C[C@@H](C)C(=O)[C@H](C)[C@H]2N(C/C=C/Cn3cc(-c4ccccn4)nn3)C(=O)O[C@]12C (stereo partly shown) [FSM-100341],< 0.0312,> 32,16,> 32,> 32,> 32,16,> 32,32,1,8,> 32,> 32,32,> 32,< 0.0312,> 32,1,> 32,2,MIC [21]: > 32 µg/mL; MIC [22]: 32 µg/mL; MIC [23]: > 32 µg/mL; MIC [24]: 0.25 µg/mL; MIC [25]: < 0.0312 µg/mL; MIC [26]: < 0.0312 µg/mL; MIC [27]: < 0.0312 µg/mL; MIC [28]: < 0.0312 µg/mL
